Experimental data taken from ChEMBL document CHEMBL2440098, “Binding mode characterization of 6α- and 6β-N-heterocyclic substituted naltrexamine derivatives via docking in opioid receptor crystal structures and site-directed mutagenesis studies: application of the 'message-address' concept in development of mu opioid receptor selective antagonists” (Bioorg Med Chem, 2013).

Legend:
Mu-type opioid receptor [1] = target: T1, Mu-type opioid receptor (Homo sapiens, UniProt P35372)
Mu-type opioid receptor [2] = target: T1, Mu-type opioid receptor; assay: Binding affinity to wild type MOR (unknown origin) expressed in CHO cells after 15 mins by Ca2+ mobilization assay; format: cell-based
[3] = Binding affinity to MOR Y210A mutant (unknown origin) expressed in CHO cells after 15 mins by Ca2+ mobilization assay; format: cell-based, Homo sapiens

T1 sequence (P35372 whole entry): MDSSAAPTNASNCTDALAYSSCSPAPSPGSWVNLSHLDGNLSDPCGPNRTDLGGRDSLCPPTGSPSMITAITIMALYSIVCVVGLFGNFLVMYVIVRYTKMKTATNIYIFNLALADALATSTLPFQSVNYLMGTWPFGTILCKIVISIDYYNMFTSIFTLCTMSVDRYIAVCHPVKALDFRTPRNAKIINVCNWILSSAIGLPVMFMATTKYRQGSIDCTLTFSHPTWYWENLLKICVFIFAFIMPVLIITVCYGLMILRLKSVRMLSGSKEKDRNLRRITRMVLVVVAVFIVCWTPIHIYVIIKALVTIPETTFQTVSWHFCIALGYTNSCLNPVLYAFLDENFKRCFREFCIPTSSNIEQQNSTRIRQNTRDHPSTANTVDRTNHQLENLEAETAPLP

For `O=C(N[C@H]1CC[C@@]2(O)[C@H]3Cc4ccc(O)c5c4[C@@]2(CCN3CC2CC2)[C@H]1O5)c1cc2ccccc2cn1`, which IC50 (Mu-type opioid receptor [1]) is on record?
The IC50 was 150 nM.

And the Ki (Mu-type opioid receptor [2])?
Its Ki is 2.57 nM.

What about the IC50 [3] of the same compound?
Its IC50 is 3.31 nM.

And the Ki [3]?
The Ki was 1.57 nM.
